Assay results reported in article PMC3465347, “Regulation of NF-κB Activation through a Novel PI-3K-Independent and PKA/Akt-Dependent Pathway in Human Umbilical Vein Endothelial Cells” (PLoS ONE, 2012).
“Also recorded” adds a separate entry of the source.

Experiments:
[1] = Aqueous solubility of MPG derivatives; assay type: physicochemical
Procedure: Stock solutions of MPG and its derivatives (Tables S1, S2, S3) were prepared either in dimethylsulphoxide (DMSO) or cell culture medium. MPG and its derivatives were diluted to working concentrations in cell culture medium.

[2] = system: E-selectin mRNA in endothelial cells; experiment: RT-PCR of E-selectin transcript; assay type: cell-based, human; details: 400 µM pretreatment, TNF-α 10 ng/ml 4 h
Procedure: In order to examine whether MPTAG reduced the mRNA transcript levels of cell adhesion molecules genes, the endothelial cells were pretreated with 400 µM MPTAG for 2 h before induction with TNF-α for 4 h followed by RT-PCR. RNA was isolated from MPTAG-treated cells according to a modified guanidinium thiocyanate procedure. The expression of the transcripts for ICAM-1, VCAM-1 and E-selectin was evaluated by RT-PCR [45]. β-Actin levels expressed under similar conditions were used as a loading control.

[3] = system: NF-κB DNA-binding activity in HUVECs; experiment: NF-κB activation assay (EMSA) in nuclear extracts; assay type: cell-based, human
Procedure: (§1) The endothelial cells were subjected to the indicated treatments followed by induction with TNF-α for indicated time points or 30 mins. The cells were then washed with PBS and dislodged using a cell scraper. The cytoplasmic and nuclear extracts were prepared as described previously, [46].
NF-κB activation in the nuclear extracts of human endothelial cells was assessed by electrophoretic mobility shift assay (EMSA) as described previously, [46]. For supershift experiment, nuclear extracts prepared from unstimulated and TNF-α-stimulated cells were incubated with antibodies against the p50 or p65 subunit of NF-κB or -α-tubulin for 15 mins at 37°C before the complex was analyzed by EMSA. Addition of equal amount of radioactive-labelled probe to all the samples was indicated by the similar intensity of the unincorporated probe observed towards the end of the gel.

[4] = system: NF-κB-dependent reporter gene transcription in HUVECs; experiment: NF-κB reporter gene assay (luciferase); assay type: cell-based, human; details: 400 µM, TNF-α 10 ng/ml
Procedure: NF-κB dependent reporter gene transcription was measured as per the instructions of the luciferase assay kit (Promega, USA). Briefly, human endothelial cells ([…]) were plated in 96-well plates. HUVECs were transiently transfected by electroporation with a NF-κB-containing luciferase reporter gene plasmid for 24 h. After transfection, cells were washed and treated with 400 µM MPTAG for 24 h. For the TNF-α stimulation, cells were treated with 10 ng/ml of TNF-α for another 24 h. Supernatants after cell lysis were assayed for luciferase activity. The mean value for cells treated with no MPTAG and no TNF-α was set to 1, and -fold differences were determined by comparing values against this set value. Cells were co-transfected with a control vector expressing β-galactosidase under SV40 promoter to normalize transfection efficiency.

[5] = system: NF-κBp65 subunit translocation in HUVECs; experiment: NF-κB p65 nuclear translocation (western blot, immunocytochemistry); assay type: cell-based, human; details: 400 µM, TNF-α-induced
Procedure: as §1
To study the effect of MPTAG on nuclear translocation of NF-κBp65 subunit in presence of TNF-α-stimulation, the HUVECs were seeded on gelatinized glass bottom 6-well plate at a cell density of 0.3×10^6 cells/ml. Following day, media was changed and MPTAG was added to the cells for 2 h. After the end of drug pretreatment, cells were induced with TNF-α for 45 mins. The cell monolayers were washed with PBS (phosphate buffered saline containing 1 mM CaCl2 and 1 mM MgCl2) and were fixed in a solution, containing 4% paraformaldehyde in 120 mM sodium phosphate buffer pH 7.2–7.4, for 20 mins at room temperature. The cells were then permeabilized using a high salt buffer, containing 0.45 M NaCl and 20 mM sodium phosphate buffer pH 7.2–7.4, 0.3% Triton X-100 and 0.2% gelatin, for 1 h at room temperature. Following this, the cells were incubated with anti-NF-κBp65 antibody for 2 h at room temperature. […] The fluorescent signals were then quantitated by selecting the nuclear and cytoplasmic regions in different fields using the NTS imaging software. […]

[6] = system: NF-κB p65 phosphorylation in endothelial cells; experiment: p65 phosphorylation western blot; assay type: cell-based, human; details: 400 µM pretreatment
Procedure: (§2) Nuclear and cytoplasmic extracts were fractionated on SDS-PAGE with equal amount of proteins per well and transferred onto PVDF membranes and those membranes were incubated with appropriate primary antibodies and treated with HRP conjugated secondary antibodies followed by detection with DAB-H2O2 system. β-tubulin, α-actin and Lamin B1 were used as loading controls. Antibodies against NF-κBp65, phosphoNF-κBp65, IκBα, phosphoIκBα, IKK-β, Akt, phosphoAkt (Ser473) and phosphoAkt (Thr308) were used.

[7] = system: TNF-α-induced IKK-β activation in HUVECs; experiment: IKK-β activation in treated cells (immunoprecipitation, kinase assay); assay type: cell-based, human
Procedure: (§3) In brief, confluent HUVECs were incubated with or without MPTAG and were stimulated with TNF-α (10 ng/ml) for 15 mins. The cells were washed and lysed in Lysis buffer containing 50 mM HEPES, pH 7.6, 10% glycerol, 1 mM sodium orthovanadate, 100 mM NaCl, 1% NP-40, 1 mM EDTA and protease inhibitor cocktail and allowed to swell on ice for 45 mins. Following centrifugation at 13,000 rpm for 45 mins, the supernatants were collected as “total cell extracts” and stored at −70°C. Immunoprecipitation was performed as per the instructions of Protein G immunoprecipitation kit (Sigma Aldrich, USA). Endogenous IKK complexes were immunoprecipitated in the following reaction mixtures: 100–300 µg of total cell extracts were incubated with 2–4 µg anti-IKK-β or PKAα antibody in 100 µl 1× IP buffer. After incubation for 16 h at 4°C with constant shaking, 50 µl of activated protein G beads were added and the mixture was incubated under rotation for an additional 3 h at 4°C.
Kinase assay was performed as previously described. Immunoprecipitates from 100 µg of total cell extracts were used for kinase assays. The reaction mixture consisted of kinase buffer (20 mM Tris Cl, pH 7.6, 1 mM EDTA, 1 mM sodium orthovanadate, 20 mM MgCl2, 2 mM DTT), 2 µg GST-IκBα(1–54), 5 µM ATP and 1 µCi [γ ^32P] ATP in a volume of 30 µl. […]

[8] = system: association of Akt with IKK-β; experiment: Akt/IKK-β association (co-immunoprecipitation); assay type: cell-based, human; details: dose-dependent and time-dependent
Procedure: as §3
as §2, with “Antibodies against NF-κBp65, phosphoNF-κBp65, IκBα, phosphoIκBα, IKK-β, Akt, phosphoAkt (Ser473) and phosphoAkt (Thr308) were used.” left out

p38 MAPK = p38 MAPK activation western blot; assay type: cell-based, human; details: MPTAG pretreatment

Structure (SMILES): CC(=O)OC[C@H]1O[C@@H](Oc2c(C)occc2=O)[C@H](OC(C)=O)[C@@H](OC(C)=O)[C@@H]1OC(C)=O [MPTAG, 2-methyl-pyran-4-one-3-O-β-D-2′,3′,4′,6′-tetra-O-acetyl glucopyranoside]
- water solubility [1]: completely water soluble
- TNF-α-induced E-selectin mRNA level [2]: significantly reduced
- TNF-α-induced NF-κB activation (EMSA), H-89 treatment preceding MPTAG ([3]; H-89 then MPTAG, TNF-α): remained increased
- TNF-α-induced NF-κB DNA-binding activity / NF-κB activation (EMSA) ([3]; MPTAG 400 µM, dose-dependent): almost complete inhibition; also recorded: significantly inhibited
- TNF-α-induced NF-κB activation (EMSA), MPTAG treatment preceding H-89 ([3]; MPTAG then H-89, TNF-α): inhibited
- basal NF-κB activation ([3]; without TNF-α stimulation): no significant inhibitory effect
- TNF-α-induced NF-κB activation (EMSA) in presence or absence of wortmannin ([3]; wortmannin before MPTAG, then TNF-α): inhibited similarly
- NF-κB-regulated luciferase activity [4]: significantly inhibited
- translocation of NF-κBp65 subunit into the nucleus [5]: prevented the translocation
- TNF-α-induced p65 phosphorylation in the cytoplasm [6]: inhibits p65 phosphorylation
- TNF-α-induced activation of IKK-β ([7]; pretreatment of cells, dose-dependent): appreciably suppressed
- protein levels of IKK-β ([7]; western blot): neither TNF-α nor MPTAG affected
- TNF-α-induced association of Akt with IKK-β [8]: significantly prevented
- TNF-α-induced p38 activation (p38 MAPK): no effect
